Patent US20250353860A1, “PIPERIDINE CARBOXAMIDE AZAINDANE DERIVATIVE, METHOD FOR PREPARING SAME, AND USE THEREOF” (BRISE PHARMACEUTICALS CO., LTD., priority 2022, published 2025)

biological target: T1, CGRP receptor (Homo sapiens, UniProt O60894+Q16602); assay: Affinity for human CGRP receptor ([125I]h-CGRPα competition, CHO cell membranes); format: binding; design: host or cells: CHO-K1; details: 0.03 nM [125I]h-CGRPα; Cheng Prusoff; read-out: Ki of the affinity determination to human CGRP receptor
Experimental: The cell membrane homogenate of CHO cells expressing human CGRP receptor (comprising 16 μg of protein) was incubated with 0.03 nM [^125I]h-CGRPα and gradiently diluted test samples in buffer (50 mM Hepes-NaOH (pH 7.4), 10 mM MgCl2, 4 mM KCl, 10 mM […], 1 mM EDTA, 1 μM phosphorylation amide, 0.3% BSA and 0.04% bacitracin) at 22° C. for 90 minutes. A control group without the test sample was set up to obtain the highest binding signal of the experiment, and the non-specific binding of the experiment was determined by adding 1 μM non-isotope-labeled h-CGRPα to the control group. After the incubation, a glass fiber filter (GF/B, Packard) soaked with 0.3% PEI was placed in a 96-well cell collector (Unfilter, Packard), and the sample was quickly filtered under vacuum and rinsed several times with precooled buffer comprising 50 mM Tris-HCl and 150 mM NaCl. After the filter was dried, scintillation fluid (Microscint 0, Packard) was added and the radioactive signal value was measured using a scintillation counter (Topcount, Packard). The results are expressed as the percentage of inhibition of specific binding of the radioligand. Non-isotope labeled h-CGRPα was used as a standard sample as a control. The test samples and standard samples were tested at multiple concentrations to obtain a competition curve with [^125I]h-CGRPα, thereby calculating the IC50) 20 of each sample. The inhibition constant Ki was further calculated using the Cheng Prusoff equation: Ki=IC50/(1+L/KD), wherein L represents the concentration of [^125I]h-CGRPα in the system (0.03 nM), and KD represents the dissociation constant between [^125I]h-CGRPα and the human CORP receptor in the system (0.06 nM).

| Ki | Structure (SMILES) |
| --- | --- |
| 0.027 nM | C[C@@H]1[C@H](c2ccccc2)C[C@H](NC(=O)c2cnc3c(c2)C[C@@]2(C3)C(=O)Nc3ncccc32)C(=O)N1CC(F)(F)F [Ubrogepant, reference compound] |

biological target: T1, CGRP receptor; assay: Inhibition of CGRP signaling pathway (cAMP, HTRF) in SK-N-MC cells; format: cell-based; design: SK-N-MC (ATCC, HTB-10) cells endogenously expressing CGRP receptor; host or cells: SK-N-MC; details: [α-CGRP]=10 ng/mL; increase in cAMP levels; read-out: IC50 of the inhibitory effect on the CGRP signaling pathway in SK-N-MC cells
Experimental: (§1) The inhibitory effect of the CGRP signaling pathway in vitro is evaluated by measuring the cAMP level. The principle is that after CGRP binds to the CGRP receptor, the CGRP signaling pathway is activated, inducing an increase in the cAMP level. […] The specific experimental method is as follows:
cAMP was determined using the CAMP-GS DYNAMIC KIT detection kit (Cisbio, 62AM4PEB).
SK-N-MC (ATCC, HTB-10) cells endogenously expressing CGRP receptor were cultured in EMEM+10% FBS medium and the cells were collected during the logarithmic growth phase. According to the instructions of the kit, the cells were resuspended in Stimulation Buffer comprising 0.5 mM IBMX, and 5 μL of the cell suspension was added to each well of a 96-well microplate (Cisbio, 66PL96025) at a cell density of 15,000 cells/well, 2.5 μL of gradient diluted compound solution was added to each well. After incubation at 37° C. for 30 minutes, 2.5 μL of 40 ng/ml human α-CGRP (Bachem, H-1470.0500) diluted in Stimulation Buffer comprising 0.5 mM IBMX was added to each well to a final concentration of 10 ng/ml. After incubation at 37° C. for 30 minutes, 5 μL of Anti-cAMP-Cryptate solution and 5 μL of cAMP-d2 solution were added to each well. After incubation at room temperature for 60 minutes, the HTRF signal was read using a microplate reader (Molecular Devices). Graphpad Prism was used to calculate the IC50 value of the compound's inhibitory effect on the increase in cAMP levels based on the compound concentration and HTRF signal.

| IC50 | Structure (SMILES) |
| --- | --- |
| > 100 nM | C[C@@H]1[C@H](c2c(F)ccc(F)c2F)C[C@H](NC(=O)c2nc3c(s2)CC2(CC3)C(=O)Nc3ncccc32)C(=O)N1CC(F)(F)F (stereo partly drawn) [Example 9, N-((3S,5S,6R)-6-methyl-2-oxo-1-(2,2,2-trifluoroethyl)-5-(2,3,6-trifluorophenyl)piperidin-3-yl)-2′-oxo-1′,2′,4,7-tetrahydro-5H-spiro[benzo[d]thiazole-6,3′-pyrrolo[2,3-b]pyridine]-2-carboxamide] |
| 6.8 nM | C[C@@H]1[C@H](c2c(F)ccc(F)c2F)C[C@H](NC(=O)c2cc3c([nH]2)CC2(C3)C(=O)Nc3ncccc32)C(=O)N1CC(F)(F)F (stereo partly drawn) [Example 10, N-((3S,5S,6R)-6-methyl-2-oxo-1-(2,2,2-trifluoroethyl)-5-(2,3,6-trifluorophenyl)piperidin-3-yl)-2′-oxo-1′,2′,4,6-tetrahydro-1H-spiro[cyclopenta[b]pyrrole-5,3′-pyrrolo[2,3-b]pyridine]-2-carboxamide] |
| 53.6 nM | C[C@@H]1[C@H](c2c(F)ccc(F)c2F)C[C@H](NC(=O)c2nc3c(o2)CCC2(C3)C(=O)Nc3ncccc32)C(=O)N1CC(F)(F)F (stereo partly drawn) [Example 12, N-((3S,5S,6R)-6-methyl-2-oxo-1-(2,2,2-trifluoroethyl)-5-(2,3,6-trifluorophenyl)piperidin-3-yl)-2′-oxo-1′,2′,6,7-tetrahydro-4H-spiro[benzo[d]oxazole-5, 3′-pyrrolo[2,3-b]pyridine]-2-carboxamide] |
| 0.89 nM | C[C@@H]1[C@H](c2c(F)ccc(F)c2F)C[C@H](NC(=O)c2cc3c([nH]2)CCC2(C3)C(=O)Nc3ncccc32)C(=O)N1CC(F)(F)F (stereo partly drawn) [Example 13, N-((3S,5S,6R)-6-methyl-2-oxo-1-(2,2,2-trifluoroethyl)-5-(2,3,6-trifluorophenyl)piperidin-3-yl)-2′-oxo-1,1′,2′,4,6,7-hexahydrospiro[indole-5,3′-pyrrolo[2,3-b]pyridine]-2-carboxamide] |
| 11 nM | C[C@@H]1[C@H](c2c(F)ccc(F)c2F)C[C@H](NC(=O)c2nc3c(s2)CC2(C3)C(=O)Nc3ncccc32)C(=O)N1CC(F)(F)F (stereo partly drawn) [Example 11, N-((3S,5S,6R)-6-methyl-2-oxo-1-(2,2,2-trifluoroethyl)-5-(2,3,6-trifluorophenyl)piperidin-3-yl)-2′-oxo-1′,2′,4,6-tetrahydrospiro[cyclopenta[d]thiazole-5,3′-pyrrolo[2,3-b]pyridine]-2-carboxamide] |

biological target: T1, CGRP receptor; assay: Inhibition of CGRP signaling pathway (cAMP, HTRF) in CHO-K1 cells expressing human CGRP receptors; format: cell-based; design: host or cells: CHO-K1; details: [α-CGRP]=10 ng/ml; increase in cAMP levels; read-out: IC50 of the inhibitory effect on the CGRP signaling pathway in CHO-K1 cells expressing human CGRP receptors
Experimental: as §1
CHO-K1 cells expressing human CGRP receptor (CGRPR/CHO-K1, PerkinElmer, ES-420-C) were cultured in F12K+10% FBS+400 μg/mL G418+10 μg/mL Blasticidin medium, and the cells were collected in the logarithmic growth phase. According to the instructions of the kit, the cells were resuspended in Stimulation Buffer comprising 0.5 mM IBMX, and 5 μL of the cell suspension was added to each well of a 96-well microplate (Cisbio, 66PL96025) at a cell density of 15,000 cells/well. 2.5 μL of gradient diluted compound solution was added to each well. After incubation at 37° C. for 30 minutes, 2.5 μL of 40 ng/ml human α-CGRP (Bachem, H-1470,0500) diluted in Stimulation Buffer comprising 0.5 mM IBMX was added to each well to a final concentration of 10 ng/ml. After incubation at 37° C. for 30 minutes, 5 μL of Anti-cAMP-Cryptate solution and 5 μL of cAMP-d2 solution were added to each well. After incubation at room temperature for 60 minutes, the HTRF signal was read using a microplate reader (Molecular Devices). Graphpad Prism was used to calculate the IC50 value of the compound's inhibitory effect on the increase in cAMP levels based on the compound concentration and HTRF signal.

| Structure (SMILES) | IC50 |
| --- | --- |
| CC1C(c2c(F)ccc(F)c2F)CC(NC(=O)c2cc3c(s2)CCC2(C3)C(=O)Nc3ncccc32)C(=O)N1CC(F)(F)F (stereo not shown) [Example 2, N-(6-methyl-2-oxo-1-(2,2,2-trifluoroethyl)-5-(2,3,6-trifluorophenyl)piperidin-3-yl)-2′-oxo-1′,2′,6,7-tetrahydro-4H-spiro[benzo[b]thiophene-5,3′-pyrrolo[2,3-b]pyridine]-2-carboxamide] | 250 nM |
| CC1C(c2c(F)ccc(F)c2F)CC(NC(=O)c2cc3c(o2)CCC2(C3)C(=O)Nc3ncccc32)C(=O)N1CC(F)(F)F (stereo not shown) [Example 1, N-(6-methyl-2-oxo-1-(2,2,2-trifluoroethyl)-5-(2,3,6-trifluorophenyl)piperidin-3-yl)-2′-oxo-1′,2′,6,7-tetrahydro-4H-spiro[benzofuran-5,3′-pyrrolo[2,3-b]pyridine]-2-carboxamide] | 106 nM |

Further lines, results first:

| IC50 | Structure (SMILES) |
| --- | --- |
| 64.7 nM | CC1C(c2c(F)ccc(F)c2F)CC(NC(=O)c2cc3c(s2)CC2(C3)C(=O)Nc3ncccc32)C(=O)N1CC(F)(F)F (stereo not shown) [Example 3, N-(6-methyl-2-oxo-1-(2,2,2-trifluoroethyl)-5-(2,3,6-trifluorophenyl)piperidin-3-yl)-2′-oxo-1′,2′,4,6-tetrahydrospiro[cyclopenta[b]thiophene-5,3′-pyrrolo[2,3-b]pyridine]-2-carboxamide] |
| 199 nM | CC1C(c2c(F)ccc(F)c2F)CC(NC(=O)c2cc3c(o2)CC2(C3)C(=O)Nc3ncccc32)C(=O)N1CC(F)(F)F (stereo not shown) [Example 4, N-(6-methyl-2-oxo-1-(2,2,2-trifluoroethyl)-5-(2,3,6-trifluorophenyl)piperidin-3-yl)-2′-oxo-1′,2′,4,6-tetrahydrospiro[cyclopenta[b]furan-5,3′-pyrrolo[2,3-b]pyridine]-2-carboxamide] |
